Test [1] has as its system burn injury site on the back of a rat. Kind of test: Rat burn injury healing test with nonwoven fabrics. It is filed as in vivo. The settings on record: nonwoven fabric test. As to the method:
In this animal testing, the nonwoven fabric A or the nonwoven fabric B was applied to a burn injury site on the back of a rat, and the healing effects by the application of the nonwoven fabric A and B were evaluated. The details of the experiment will be described below.
The back of a rat was depilated. In the depilated portion, hot water at 80° C. was brought into contact for 5 seconds to form two burn injury sites. To the burn injury sites, the nonwoven fabric A (about 2 cm×2 cm) and the nonwoven fabric B (about 2 cm×2 cm) were applied, and occlusive patching was performed using non-permeable surgical tape (Blenderm, 3M) and adhesive flexible bandage (Silkytex 3, ALCARE Co., Ltd). On days 3, 6, and 9 after the application of the nonwoven fabrics A and B, the nonwoven fabrics were removed, and the healing effect was evaluated. […]
Two burn injury sites were each formed on 15 rats, and then the nonwoven fabric A and the nonwoven fabric B were applied to each two burn injury sites. […] On day 3, the nonwoven fabrics A and B on the rats of test group A were removed, and the skin conditions were assessed. On day 6, the nonwoven fabrics A and B on the rats of test group B were removed, and the skin conditions were assessed, and on day 9, the nonwoven fabrics A and B on the rats of test group C were removed, and the skin conditions were assessed. […]

In test [2] the test system is burn injury sites on the backs of rats. In words: Rat burn injury healing test with films. As to conditions: film test. It is filed as in vivo. As to the method: The skin conditions of the rats were evaluated according to the following scores (visual inspection).
0: asymptomatic, 1: slight, 2: mild, 3: moderate, 4: crusting, 5: necrosed
The test results were expressed as average values±standard errors and analyzed using EXSUS (Version 8.0, CAC EXICARE Corporation) and SAS (Version 9.3, SAS Institute Japan Ltd). For the scores of the skin conditions, the Wilcoxon test was conducted at a 2-sided significance level of 5%.
In this animal testing, the films 1 to 3 were applied to burn injury sites on the backs of rats, and the healing effects by the application of the films 1 to 3 were evaluated. For comparison, a burn injury site was left untreated, and the development of the untreated site was observed. The details of the experiment will be described below.
The back of a rat was depilated. In the depilated portion, hot water at 80° C. was brought into contact for 5 seconds to form two burn injury sites. […] On days 3, 6, and 9 after the application of the films 1 and 2, the films were removed, and the healing effect was evaluated.
Furthermore, two burn injury sites were formed on the back of another rat in the same manner as described above. […] On days 3, 6, and 9 after the application of the film 3, the film was removed, and the healing effect was evaluated. […]

Regarding `CCCCCCCCCCCCCCCCCC(=O)OCC(O)CO` (centres unmarked) [glycerol alkyl ester, glycerol stearate], the “healing effect on skin having a burn injury (conclusion)” value in test [1] and in test [2] was “has an external wound-healing effect” throughout.

Source of the values: patent publication US11058660B2, “External wound-healing agent, and external wound-healing material” (Mitsui Chemicals, Inc., priority 2014, dated 2021).
